For test [1], the system named is cytokines (TNFα, IL-6, IFNg, and IL17) in blood. Briefly: T cell transfer adoptive model of colitis, cytokine levels in blood (V-PLEX proinflammatory panel). The class given is in vivo, C57BL/6NRj-Rag2^tm1Ciphe/Rj mice. To be noted: day 55; oral daily; ABX464 100 mg/kg, etrasimod 3 mg/kg, ozanimod 1.5 mg/kg, alone or combined. Here is the method:
(§1) 8-week-old male C57BL/6 mice and 6-week-old male C57BL/6NRj-Rag2^tm1Ciphe/Rj mice were purchased from Janvier Labs and housed in accordance with French and European regulations. The colony is maintained at 21±1° C., 50±5% humidity and under an alternating 12/12-hours light/dark cycle (light at 6:00 AM). Standard food and water were given ad libitum. Animals were allowed to acclimate to the animal facility at least 10 days prior to conducting the study.
Spleens were dissected from C57BL/6 male donor mice and placed in a PBS+2% FBS buffer. Single-cell suspension was generated with Gentle Macs Dissociator followed by mashing cells through 40-μm nylon mesh strainers. Cells were pelleted and suspended in ACK lysis buffer for 5 minutes at RT (room temperature) followed by the addition of cold PBS+2% FBS buffer. CD4+ T cells were enriched by negative selection using a CD4+ T-cell isolation kit (Miltenyi) and LS magnetic columns. The flow through was collected, and cells were centrifuged and resuspended in PBS+2% FBS buffer. Antibodies (CD45RB-PE; CD4 FITC) were added and incubated on ice for 30 minutes protected from light. Cells were washed with buffer, centrifuged, resuspended and sorted using BD FACSAria™ Fusion Flow Cytometer. CD4+CD45high and CD4+CD45low cells were sorted, centrifuged and resuspended in sterile PBS. A total of 5×10^5 cells CD4+CD45high or CD4+CD45low were intraperitoneally injected to 6-week-old male C57BL/6NRj-Rag2^tm1Ciphe/Rj mice. The group “high” (injected with CD4+CD45high) represents the […] and the group “low” (injected with CD4+CD45low) represents the […].
Rag2^tm1Ciphe/Rj mice injected with CD4+CD45high or CD4+CD45low (controls) were orally dosed daily (10 ml/kg) beginning on the day of the transfer (1 h before the cell transfer at Day 0) until day 55 with vehicle (0.5% methylcellulose) and Rag2^tm1Ciphe/Rj mice injected with CD4+CD45high were orally dosed daily with one of the following 8-Chloro-N-(4-(trifluoromethoxy)phenyl)quinolin-2-amine (ABX464) (100 mg/kg), Etrasimod (3 mg/kg), Ozanimod (1.5 mg/kg), ABX464+Etrasimod (100 mg/kg and 3 mg/kg) or ABX464+Ozanimod (100 mg/kg and 1.5 mg/kg). All mice were weighed daily.
At day 55, mice were anesthetized with isoflurane. Blood was collected at Tmax and mice were euthanized to harvest tissues. Cytokines concentrations plasma were determined using V-PLEX proinflammatory Panel mouse kit (Meso Scale Diagnostics).
Statistical analysis was performed on mean+/−standard deviation by one way ANOVA followed by Kruskal-Wallis's multiple comparisons test. Asterisk indicates the significance of the differences: *P<0.05, **P<0.01, ***P<0.001, ****P<0.0001.
In addition, a Welch ANOVA was performed on log transformed data for each cytokine, based on the above results.
A synergy was assessed by comparing each combination group effect versus vehicle to the sum of the corresponding compound alone groups' effects versus vehicle (Bonferroni-Holm's adjustment for multiplicity).
The following tables give the estimation and 95% confidence interval (95% CI) of the difference between Combination effect and Sum of compounds alone effects for each cytokine.

Test [2] deals with T cell transfer adoptive model of colitis. Briefly: T cell transfer adoptive model of colitis, body weight. The test is classed as in vivo, C57BL/6NRj-Rag2^tm1Ciphe/Rj mice. To be noted: day 55; oral daily; ABX464 100 mg/kg, etrasimod 3 mg/kg, ozanimod 1.5 mg/kg, alone or combined. The protocol: as §1
Spleens were dissected from C57BL/6 male donor mice and placed in a PBS+2% FBS buffer. Single-cell suspension was generated with Gentle Macs Dissociator followed by mashing cells through 40-μm nylon mesh strainers. Cells were pelleted and suspended in ACK lysis buffer for 5 minutes at RT (room temperature) followed by the addition of cold PBS+2% FBS buffer. CD4+ T cells were enriched by negative selection using a CD4+ T-cell isolation kit (Miltenyi) and LS magnetic columns. The flow through was collected, and cells were centrifuged and resuspended in PBS+2% FBS buffer. Antibodies (CD45RB-PE; CD4 FITC) were added and incubated on ice for 30 minutes protected from light. Cells were washed with buffer, centrifuged, resuspended and sorted using BD FACSAria™ Fusion Flow Cytometer. […]
Weight was monitored over the period of the study (55 days), and the effect on body weight over the time period is shown in FIGS. 1A-1B. […]

Test [3] relates to chronic plaque psoriasis; relapsing-remitting multiple sclerosis. Particulars: patients with moderate to severe chronic plaque psoriasis and patients with relapsing-remitting multiple sclerosis; cited from earlier work.
The test system of test [4] is peripheral blood lymphocytes. To be noted: oral administration; cited from earlier work.
Test [5] relates to active SPMS. Particulars: cited from earlier work.

`FC(F)(F)Oc1ccc(Nc2ccc3cccc(Cl)c3n2)cc1` [ABX464, 8-Chloro-N-(4-(trifluoromethoxy)phenyl)quinolin-2-amine]: in test [1], the “plasma level of IFNg” value is reported as “did not reduce”, the “plasma level of IL17” value is “reduced”, the “plasma level of IL-6” value is “did not reduce” and the “plasma level of TNFα” value is “reduced”. Further, the body weight result in test [2] was “weight gain”.

Regarding `O=C(O)C[C@H]1CCc2c1[nH]c1ccc(OCc3ccc(C4CCCC4)c(C(F)(F)F)c3)cc21` [Etrasimod], in test [1], the “plasma level of IFNg” value is reported as “reduced”, the “plasma level of IL17” value is recorded as “did not reduce”, the “plasma level of IL-6” value is given as “did not reduce” and the “plasma level of TNFα” value is given as “reduced”. Further, in test [2], the body weight entry is “protection from weight loss”.

Regarding `CC(C)Oc1ccc(-c2nc(-c3cccc4c3CC[C@@H]4NCCO)no2)cc1C#N` [Ozanimod], in test [1], the “plasma level of IFNg” value is reported as “reduced”, the “plasma level of IL17” value is reported as “did not reduce”, the “plasma level of IL-6” value was “did not reduce” and the “plasma level of TNFα” value is listed as “reduced”.

On to `CCC/N=C1\S/C(=C\c2ccc(OC[C@H](O)CO)c(Cl)c2)C(=O)N1c1ccccc1C` [Ponesimod, (R)-5-[3-chloro-4-(2,3-dihydroxy-propoxy)-benz[Z]ylidene]-2-([Z]-propylimino)-3-o-tolyl-thiazolidin-4-one], for which the “clinical benefit in phase II/phase III trials” value in test [3] is listed as “clinical benefit”. Also, the “number of peripheral blood lymphocytes” value in test [4] was “consistent, sustained, and dose-dependent reduction”.

As for `CCc1cc(/C(C)=N/OCc2ccc(C3CCCCC3)c(C(F)(F)F)c2)ccc1CN1CC(C(=O)O)C1` [Siponimod, 1-(4-[1-[(E)-4-Cyclohexyl-3-trifluoromethyl-benzyloxyimino]-ethyl]-2-ethyl-benzyl)-azetidine-3-carboxylic acid], the “risk of disability and MS relapses” value in test [5] is given as “decreases”.

The record behind these values is patent US20250032474A1, “COMBINATION OF 8-CHLORO-N-(4-(TRIFLUOROMETHOXY)PHENYL)QUINOLIN-2-AMINE AND ITS DERIVATIVES WITH A S1P RECEPTOR MODULATOR” (ABIVAX, priority 0001, published 2025).
